{"source": "patent US20110256121A1", "about": "“METHODS AND KITS FOR DIAGNOSING OR MONITORING AUTOIMMUNE AND CHRONIC INFLAMMATORY DISEASES” (THE REGENTS OF THE UNIVERSITY OF MICHIGAN, priority 2008, published 2011)", "key": {"T cell genes": {"test_system": "T cell genes", "settings": "PHA-stimulated T cells, 2-deoxy-5-azaC"}, "CD70 expression": {"test_system": "CD70 expression", "assay": "CD70 expression on CD4+ cells of PBMCs cultured with lupus medications", "type": "cell-based, human", "settings": "1-100 μM, 24 hours, PBMCs with or without PHA", "description": "(§1) Cells and cell culture. Peripheral blood mononuclear cells (PBMCs) were isolated by density-gradient centrifugation. T cells were then isolated by E-rosetting (See, e.g., Golbus et al., Clin Immunol Immunopathol 46, 129 (1988)). […] Where indicated, the cells were cultured in RPMI 1640/10% fetal calf serum (FCS) supplemented with interleukin-2 (IL-2) (See, e.g., Richardson et al., Clin Immunol Immunopathol 55, 368 (1990)), in round-bottomed 5-ml culture tubes (Falcon). Cells were stimulated with 1 μg/ml of PHA (Remel) for 16 hours, then cultured in 24-well plates at a density of 1×10^6 for an additional 72 hours in the presence of 2-deoxy-5-azaC or 5-azaC (Sigma-Aldrich), procainamide (Sigma-Aldrich), hydralazine (Sigma-Aldrich), or the MEK inhibitors U0126 (Promega) or PD98059 (Promega). In other studies, PHA-stimulated PBMCs were cultured in RPMI 1640/10% FCS and treated with indomethacin, chloroquine, hydrocortisone, and 6-mercaptopurine (6-MP) (all from Sigma-Aldrich). TT48E, a cloned, CD4+, tetanus toxoid-reactive human T cell line, was cultured as previously described (Cornacchia et al., J Immunol 140, 2197 (1988); Richardson et al., Arthritis Rheum 35, 647 (1992)).\n(§2) Flow cytometric analysis. The following fluorochrome-conjugated monoclonal antibodies were obtained from BD PharMingen (San Diego, Calif.): FITC-conjugated anti-human CD70, CD2, or isotype-matched controls; phycoerythrin (PE)-conjugated anti-CD2, CD4, and CD8; and CyChromeconjugated anti-HLA-DR, CD2, and isotype controls. Staining and multicolor flow cytometric analysis were performed (See, e.g., Hale et al., Cell Immunol 220, 51 (2002)) using saturating concentrations of antibody."}, "CD70 mRNA": {"test_system": "CD70 mRNA", "assay": "CD70 transcripts by real time RT-PCR in anti-CD3 + anti-CD28 stimulated CD4+ T cells", "type": "cell-based, human", "settings": "5 μm 5-azaC, 50 μm Pca, 20 μm Hyd, 40 μm U0126, 25 μm PD98059, 3 days", "description": "(§3) In other studies, T cells were isolated by negative selection using magnetic beads and instructions provided by the manufacturer (Pan T cell Isolation Kit, Miltenyi), and the CD4+ or CD8+ subset was similarly isolated by magnetic cell sorting. Jurkat cells (E6-1) were cultured as previously described (See, e.g., Cornacchia et al., J Immunol 140:2197 (1998)). Purified human CD4+ T cells were first stimulated with plate bound anti-CD3 and soluble anti-CD28. Briefly, 24 well plates were coated with 300 μl of anti-CD3 (10 μg/ml in PBS—SouthernBiotech) 18 hours 4° C., washed, then 2×10^6 purified T cells were added to the wells in 2 ml RPMI 1640/10% FCS containing 2 μg/ml anti-CD28 (SouthernBiotech). The plates were incubated 37° C. in a humidified atmosphere containing 5% CO2 for 18-24 hours, then treated with 5 μm 5-azaC (Aldrich), 50 μm Pca (Sigma), 20 μm Hyd (Aldrich), 40 μm UO126 (Promega) or 25 μm PD98059 (Promega), and cultured for 3 additional days as described (See, e.g., Oelke et al., Arthritis Rheum 50:1850 (2004))."}, "T cell CD70 expression": {"test_system": "T cell CD70 expression", "assay": "CD70 expression on PHA-stimulated T cells by flow cytometry", "type": "cell-based, human", "settings": "for CD70 expression on treated vs untreated PHA-stimulated T cells: unfractionated T cells, 3 days, 1 μM 5-azaC, dose-response for procainamide, PD98059, U0126", "description": "as §1, §2\nThe panel of inhibitors used included 5-azaC, an irreversible DNA methyltransferase inhibitor (See, e.g., Glover and Leyland-Jones, Cancer Treat Rep 71, 959 (1987)) procainamide, a competitive DNA methyltransferase inhibitor (See e.g., Scheinbart et al., J Rheumatol 18, 530 (1991)), and the ERK pathway inhibitors PD98059, U0126, and hydralazine.\nStudies were performed examining the effects of the DNA methylation inhibitors on CD70 expression in CD4+ and CD8+ T cell subsets."}, "CD70 promoter": {"test_system": "CD70 promoter", "assay": "Bisulfite sequencing of the CD70 promoter in CD4+ T cells", "type": "cell-based, human", "settings": "for methylation of the 10 CG pairs between −515 and −423 of the CD70 promoter: anti-CD3 and anti-CD28 stimulated CD4+ T cells vs stimulated untreated controls", "description": "as §3\nBisulfite sequencing. The putative CD70 promoter was identified using the published CD70 cDNA sequence and Tfsitescan software. Deoxycytosine (dC) and deoxymethylcytosine (d^mC) bases in the gene promoter and 5′ flanking sequences were identified by bisulfite treatment of purified DNA followed by nested PCR amplification of 3 sequential fragments to span the entire region. The primers were designed to avoid CG pairs and to account for the conversion of dC to dU by the bisulfite. EcoRI sites were added to the forward primers, and XbaI to the reverse, to facilitate cloning. The amplified fragments were then cloned into PBS+, and 5 clones sequenced for each fragment. The primers used were: […]\nThe effect of lupus and DNA methylation inhibitors on a regulatory element in the CD70 promoter was examined. DNA was isolated from the CD4+ T cells of 7 healthy individuals or 6 lupus patients, bisulfite treated, the region from −466-−515, containing 6 CG pairs was amplified by PCR, and 5 fragments sequenced from each individual. The average methylation status of the 6 CG pairs for healthy versus lupus individuals is shown (FIG. 8, NI and Lupus, respectively). CD4+ T cells from 5 individuals were also stimulated with PHA, treated with the irreversible DNA methyltransferase inhibitor 5-azacytidine (5-azaC), and the methylation status of the 6 CG pairs similarly analyzed from the 25 fragments sequenced (FIG. 8, 5-azaC). […] Results are presented as the mean±SEM of the average methylation of the 6 CG pairs, measured from the 10-35 determinations/group.\nThe effects of the DNA methylation inhibitors on the methylation status of this region were then compared. […] Again, 5 cloned fragments were sequenced from each control, for a total of 35 determinations per CG pair. […] FIG. 14 compares the average methylation for the 10 CG pairs (−515 to −423) in the T cells treated with DNA methylation inhibitors relative to stimulated, untreated controls."}, "[1]": {"target": "KIR3DL1 on human T cells (human) (UniProt P43629)", "sequence (P43629 22-444)": "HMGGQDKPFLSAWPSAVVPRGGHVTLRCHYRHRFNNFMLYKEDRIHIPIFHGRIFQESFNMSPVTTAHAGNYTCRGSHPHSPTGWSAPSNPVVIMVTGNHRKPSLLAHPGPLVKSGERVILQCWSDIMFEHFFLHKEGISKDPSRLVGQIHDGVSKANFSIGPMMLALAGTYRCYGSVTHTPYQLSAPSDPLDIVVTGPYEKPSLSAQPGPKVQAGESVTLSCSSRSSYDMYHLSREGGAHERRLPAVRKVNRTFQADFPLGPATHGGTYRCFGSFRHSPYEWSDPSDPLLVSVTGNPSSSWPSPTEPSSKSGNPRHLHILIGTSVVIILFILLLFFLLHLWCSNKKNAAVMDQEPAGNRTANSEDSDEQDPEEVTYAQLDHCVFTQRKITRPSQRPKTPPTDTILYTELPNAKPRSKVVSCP", "assay": "cell-based or functional assay"}}, "data": [{"compound": "Nc1ncn([C@H]2C[C@H](O)[C@@H](CO)O2)c(=O)n1", "note": "[2-deoxy-5-azaC]", "values": [{"measurement": "CD70 expression increase in treated cells relative to untreated controls", "setting": "T cell genes; 3 days, oligonucleotide arrays, mean±SEM, 2 independent experiments", "result": "2.6±0.6", "unit": "fold"}, {"measurement": "genes decreased ≧2-fold", "setting": "T cell genes; treated vs untreated", "result": 12, "unit": "genes"}, {"measurement": "genes reproducibly increased ≧2-fold", "setting": "T cell genes; treated vs untreated", "result": 118, "unit": "genes"}]}, {"compound": "Sc1ncnc2nc[nH]c12", "note": "[6-MP, 6-mercaptopurine]", "values": [{"measurement": "CD70 expression on stimulated or unstimulated CD4+ cells", "setting": "CD70 expression", "result": "No increase in CD70 expression was seen"}]}, {"compound": "COc1cccc(-c2cc(=O)c3ccccc3o2)c1N", "note": "[PD98059]", "values": [{"measurement": "CD70 transcripts relative to β-actin, treated vs untreated", "setting": "CD70 mRNA", "result": "increase CD70 transcripts"}, {"measurement": "increase of CD70 MFI on CD4+ T cells", "setting": "T cell CD70 expression; 25 μM PD98059, n=3, P=0.032", "result": "1.63±0.43", "unit": "fold"}, {"measurement": "CD70 expression on CD4+ T cells", "setting": "T cell CD70 expression", "result": "increased CD70 expression on CD4+ T cells"}, {"measurement": "CD70 expression on treated vs untreated PHA-stimulated T cells", "setting": "T cell CD70 expression", "result": "increase in CD70 expression with treatment"}, {"measurement": "methylation of the 10 CG pairs between −515 and −423 of the CD70 promoter", "setting": "CD70 promoter", "result": "appears to demethylate"}]}, {"compound": "CCN(CC)CCCC(C)Nc1ccnc2cc(Cl)ccc12", "note": "(stereo not drawn) [chloroquine]", "values": [{"measurement": "CD70 expression on stimulated or unstimulated CD4+ cells", "setting": "CD70 expression", "result": "No increase in CD70 expression was seen"}]}, {"compound": "C[C@]12CCC(=O)C=C1CC[C@@H]1[C@@H]2[C@@H](O)C[C@@]2(C)[C@H]1CC[C@]2(O)C(=O)CO", "note": "[hydrocortisone]", "values": [{"measurement": "CD70 expression on stimulated or unstimulated CD4+ cells", "setting": "CD70 expression", "result": "No increase in CD70 expression was seen"}]}, {"compound": "COc1ccc2c(c1)c(CC(=O)O)c(C)n2C(=O)c1ccc(Cl)cc1", "note": "[indomethacin]", "values": [{"measurement": "CD70 expression on stimulated or unstimulated CD4+ cells", "setting": "CD70 expression", "result": "No increase in CD70 expression was seen"}]}, {"compound": "CCN(CC)CCNC(=O)c1ccc(N)cc1", "note": "[procainamide]", "values": [{"measurement": "CD70 transcripts relative to β-actin, treated vs untreated", "setting": "CD70 mRNA", "result": "increase CD70 transcripts"}, {"measurement": "CD70 expression on CD4+ T cells", "setting": "T cell CD70 expression", "result": "increased CD70 expression on CD4+ T cells"}, {"measurement": "CD70 expression on treated vs untreated PHA-stimulated T cells", "setting": "T cell CD70 expression", "result": "increase in the ratio of the mean fluorescence intensity (MFI) of CD70 expression"}, {"measurement": "methylation of the CD70 promoter region −466-−515 (6 CG pairs)", "setting": "CD70 promoter; PHA-stimulated CD4+ T cells", "result": "demethylate this region"}, {"measurement": "methylation of the 10 CG pairs between −515 and −423 of the CD70 promoter", "setting": "CD70 promoter", "result": "appears to demethylate"}]}, {"compound": "anti-NKB1 (KIR3DL1) antibody (BD PharMingen)", "values": [{"measurement": "% cytotoxicity (51Cr release from autologous monocytes/macrophages) (% cytotoxicity)", "setting": "[1]", "result": 37}]}]}
